Here are results for seven substances from patent publication US5410024A, “Human cancer inhibitory pentapeptide amides” (Arizona Board of Regents acting on behalf of Arizona State …, priority 1993, dated 1995).

Assay type in all cases: cell-based
In one experiment the test system is human tumor cell lines. Kind of experiment: Inhibition of human tumor cell lines (general statements). The settings on record: for GI50: for at least six cell lines. The source says: Current research in the control of cancer in the United States is coordinated by the National Cancer Institute (NCI). To determine whether a substance has anti-cancer properties, the NCI has established a systematic protocol. This protocol, which involves the testing of a substance against a standard cell line panel containing 60 human tumor cell lines, has been verified and is accepted in scientific circles. The protocol, and the established statistical means for analyzing the results obtained by the standardized testing are fully described in the literature. See: Boyd, Dr. Michael R., Principles & Practice of Oncology, PPO Updates, Volume 3, Number 10, October 1989, for an in depth description of the testing protocol; and Paull, K. D., "Display and Analysis of Patterns of Differential Activity of Drugs Against Human Tumor Cell Lines; Development of Mean Graph and COMPARE Algorithm", Journal of the National Cancer Institute Reports, Vol. 81, No. 14, Page 1088, Jul. 14, 1989 for a description of the methods of statistical analysis. Both of these references are incorporated herein by this reference thereto.

The next experiment has as its system NCI-H460. Kind of experiment: NCI human tumor cell line screen, Lung-NSC NCI-H460. To be noted: for GI-50 / TGI / LC-50: Lung-NSC NCI-H460. The source says:
(§1) Current research in the control of cancer in the United States is coordinated by the National Cancer Institute (NCI). To determine whether a substance has anti-cancer properties, the NCI has established a systematic protocol. […] The protocol, and the established statistical means for analyzing the results obtained by the standardized testing are fully described in the literature. […] Both of these references are incorporated herein by this reference thereto.

For a further experiment, the system named is SK-MEL-5. Briefly: NCI human tumor cell line screen, Melanoma SK-MEL-5. To be noted: for GI-50 / TGI / LC-50: Melanoma SK-MEL-5.
Description: as §1

In the next experiment the test system is KM20L2. Briefly: NCI human tumor cell line screen, Colon KM20L2. To be noted: for TGI / LC-50 / GI-50: Colon KM20L2; for GI50, minipanel cell line E: minipanel comparison.
Description: as §1

Another experiment concerns SF-295. Briefly: NCI human tumor cell line screen, CNS SF-295. To be noted: for GI-50 / TGI / LC-50: CNS SF-295.
Description: as §1

A further experiment deals with OVCAR-3. Kind of experiment: NCI human tumor cell line screen, Ovarian OVCAR-3. To be noted: for GI-50 / TGI / LC-50: Ovarian OVCAR-3.
Description: as §1

For the next experiment, the system named is A498. Kind of experiment: NCI human tumor cell line screen, Renal A498. The settings on record: for TGI / GI-50 / LC-50: Renal A498.
Description: as §1

“(R)-Doe-isoDolastatin 10 [reference compound]”: in the experiment with human tumor cell lines, the “human cancer cell line activity as compared to Dolastatin 10” value is “did not show any significant difference”.

Take “L-Dolavalyl-L-Valyl-N-Methyl-(S,S,R)-Dolaisoleucyl-(S,R,R)-Dolaproyl-L-Phenylalanineamide-N-(2-benzothiazole) [Compound 9e]”: the GI50 entry in the experiment with human tumor cell lines was “less than 10^-7 μg/ml”. Further, the GI-50 is 0.000000039 µg/mL in the experiment with NCI-H460, 0.000000030 µg/mL in the experiment with SK-MEL-5, 0.00000011 µg/mL in the experiment with SF-295 and 0.000000033 µg/mL in the experiment on OVCAR-3. For the same substance, the TGI in the experiment on NCI-H460 is 0.00044 ng/mL; in the experiment on SK-MEL-5, > 0.001 ng/mL; in the experiment on KM20L2 it was 0.0007 ng/mL; in the experiment on SF-295, 0.00096 ng/mL; in the experiment on OVCAR-3 it was 0.00019 ng/mL; in the experiment on A498, > 0.001 ng/mL. Further, the “GI50, minipanel cell line E” value in the experiment on KM20L2 stood at 0.00026 ng/mL. In addition, the “GI50, minipanel cell line C” value in the experiment with A498 (minipanel comparison, column C (key not visible; values match A498)) stood at 0.00023 ng/mL.

With “L-Dolavalyl-L-Valyl-N-Methyl-(S,S,R)-Dolaisoleucyl-(S,R,R)-Dolaproyl-L-Phenylalanineamide-N-(3-quinoline) [Compound 9g]”, in the experiment on human tumor cell lines, the GI50 result was “less than 10^-7 μg/ml”. The LC-50 in the experiment on NCI-H460, with SK-MEL-5, in the experiment with KM20L2, in the experiment on SF-295, in the experiment on OVCAR-3 and in the experiment on A498 was > 0.000001 µg/mL each time. For the same substance, the TGI in the experiment on NCI-H460 is 0.00012 ng/mL; in the experiment on SK-MEL-5, > 0.001 ng/mL; in the experiment on KM20L2, 0.00023 ng/mL; with SF-295, 0.00061 ng/mL; in the experiment with OVCAR-3 it was 7.9e-05 ng/mL; with A498, > 0.001 ng/mL. In the experiment with NCI-H460 (minipanel comparison, column D (key not visible; values match NCI-H460)), the “GI50, minipanel cell line D” value came out at 1.3e-05 ng/mL. Besides, the “GI50, minipanel cell line F” value in the experiment with SK-MEL-5 (minipanel comparison, column F (key not visible; values match SK-MEL-5)) turned out to be 3e-06 ng/mL. In addition, the “GI50, minipanel cell line E” value in the experiment on KM20L2 was 3.9e-05 ng/mL. The “GI50, minipanel cell line B” value in the experiment on SF-295 (minipanel comparison, column B (key not visible; values match SF-295)) is 4e-05 ng/mL. Also, the “GI50, minipanel cell line A” value in the experiment on OVCAR-3 (minipanel comparison, column A (key not visible; values match OVCAR-3)) was 4.6e-07 ng/mL. This substance returned a GI-50 with A498 of 0.000000100 µg/mL.

For “L-Dolavalyl-L-Valyl-N-Methyl-(S,S,R)-Dolaisoleucyl-(S,R,R)-Dolaproyl-L-Phenylalanineamide-N-[2-(1,3,4-thiadiazole)] [Compound 9d]”, the GI-50 came to 0.0000036 µg/mL with NCI-H460; 0.0000082 µg/mL in the experiment with SK-MEL-5; 0.0000099 µg/mL in the experiment on KM20L2; 0.000024 µg/mL with SF-295; 0.0000031 µg/mL in the experiment on OVCAR-3; 0.000039 µg/mL in the experiment with A498. Further, the LC-50 with NCI-H460 was > 0.0001 µg/mL; in the experiment on SK-MEL-5, 0.00043 µg/mL; in the experiment with KM20L2 it was 0.00069 µg/mL; with SF-295 it was > 0.0001 µg/mL; in the experiment on OVCAR-3 it was > 0.0001 µg/mL; with A498 it was > 0.0001 µg/mL. Moreover, the TGI with NCI-H460 is 0.061 ng/mL; with SK-MEL-5, 0.007 ng/mL; in the experiment on KM20L2 it was 0.015 ng/mL; in the experiment with SF-295, > 0.1 ng/mL; with OVCAR-3, 0.16 ng/mL; in the experiment with A498, > 0.1 ng/mL.

For the substance “L-Dolavalyl-L-Valyl-N-Methyl-(S,S,R)-Dolaisoleucyl-(S,R,R)-Dolaproyl-L-Phenylalanineamide-N-[2-(4-methylthiazole)] [Compound 9b]”, the GI-50 with NCI-H460 was found to be 0.00000046 µg/mL; in the experiment on SK-MEL-5 it was 0.00000081 µg/mL; in the experiment on KM20L2, 0.0000034 µg/mL; with SF-295 it was 0.0000026 µg/mL; in the experiment on OVCAR-3, 0.00000020 µg/mL; with A498, 0.0000053 µg/mL. Besides, the LC-50 in the experiment with NCI-H460, in the experiment on SK-MEL-5, in the experiment with KM20L2, with SF-295 and in the experiment with A498 was > 0.0001 µg/mL throughout. Moreover, the TGI in the experiment on NCI-H460 was 0.013 ng/mL; with SK-MEL-5 it was > 0.1 ng/mL; in the experiment on KM20L2, 0.017 ng/mL; in the experiment with SF-295, > 0.1 ng/mL; with OVCAR-3, 0.012 ng/mL; with A498, > 0.1 ng/mL.

For the substance “L-Dolavalyl-L-Valyl-N-Methyl-(S,S,R)-Dolaisoleucyl-(S,R,R)-Dolaproyl-L-Phenylalanineamide-N-[2-(4-phenylthiazole)] [Compound 9c]”, the GI-50 with NCI-H460 was determined as 0.000056 µg/mL; in the experiment with SK-MEL-5, 0.000043 µg/mL; with KM20L2, 0.0002 µg/mL; with SF-295 it was 0.000065 µg/mL; in the experiment on OVCAR-3, 0.000020 µg/mL; in the experiment on A498, 0.000057 µg/mL. Further, the LC-50 in the experiment on NCI-H460, in the experiment with SK-MEL-5, in the experiment on KM20L2, in the experiment with SF-295, in the experiment on OVCAR-3 and in the experiment with A498 was > 0.001 µg/mL each time. The TGI with NCI-H460 is 0.51 ng/mL; in the experiment on SK-MEL-5 it was 0.33 ng/mL; in the experiment with KM20L2 it was 0.75 ng/mL; with SF-295, > 1 ng/mL; with OVCAR-3, 0.13 ng/mL; in the experiment with A498, 0.72 ng/mL.

As for “L-Dolavalyl-L-Valyl-N-Methyl-(S,S,R)-Dolaisoleucyl-(S,R,R)-Dolaproyl-L-Phenylalanineamide-N-[2-(6-methoxybenzo-thiazole)] [Compound 9f]”, the GI-50 came to 0.00033 µg/mL with NCI-H460; 0.000090 µg/mL with SK-MEL-5; 0.00036 µg/mL with KM20L2; 0.00055 µg/mL with SF-295; 0.00032 µg/mL in the experiment with OVCAR-3; 0.00037 µg/mL in the experiment on A498. In addition, the LC-50 in the experiment on NCI-H460, with SK-MEL-5, in the experiment on KM20L2, in the experiment on SF-295, with OVCAR-3 and with A498 was > 0.01 µg/mL in each case. Besides, the TGI with NCI-H460 was 1.6 ng/mL; in the experiment on SK-MEL-5, > 10 ng/mL; in the experiment with KM20L2, 2.2 ng/mL; in the experiment with SF-295, > 10 ng/mL; in the experiment with OVCAR-3, 1.1 ng/mL; in the experiment with A498, > 10 ng/mL.
